Earlier results on one molecule are cited in patent US20240423899A1, “LONGEVITY MOISTURIZING CREAM” (Wellbeam Consumer Health Intermediate, LLC, priority 2023, published 2024).

Structures are written as SMILES.

The data set deals with skin. The conditions noted are these: topical application.

Regarding `C=C[C@@](C)(/C=C/c1ccc(O)cc1)CCC=C(C)C` [bakuchiol], the “irritating effect on the skin” value is reported as “no irritating effect”; the “lines and wrinkles, pigmentation, elasticity, firmness, and overall reduction in photo-damage” value is recorded as “significant improvement”.
